According to patent US6090610A, “Macrolide compound 0406” (Higeta Shoyu Co., Ltd., priority 1996, dated 2000):
In brackets after ≈: the same amount, converted by molar mass. Blank lines part the entries; values can stand above or below the molecule they belong to.

Tests used:
[1] = tested on: Nocardia brasiliensis IFM 0406; test: Sensitivity of Nocardia brasiliensis IFM 0406 against antibiotics; assay type: cell-based
Experimental: The strain was cultured in a culture medium (brain heart infusion containing 2% glucose) at 30° C. with shaking at 250 rpm for 72 hours, and the cells grown in the medium were collected by centrifuge at 3,000 rpm for 10 minutes, which were then washed twice in distilled water. Further, the cells were washed in ethanol and subsequently dried in vacuum to give the dry cells. According to Bergey's Manual of Determinative Bacteriology, the 9-th edition, Williams & Willkins, Baltimore, 1993, the amino acid composition, sugar composition and lipid composition of the dry cells were determined. Meso-diamino pimelic acid was detected by the amino acid analysis, while arabinose and galactose were detected by the sugar analysis. Also, the presence of mycolic acid was determined by the lipid analysis, and the type of the acid was Nocardia type. MK-8(H4) cycle was confirmed as a principal component of the isoprenoid quinone which is a part of the bacterial lipid, while as the trace components, MK-8(H4), MK-8(H), and MK-9(H2) were confirmed. Based onthe decomposition of adenine, casein, hypoxanthine and tyrosine and additionally on the formation patterns of acids from sugar and the antimicrobial sensitivity patterns, shown in Table 4 (Mikami & Yazawa, Susceptibility pattern of pathogenic Nocardia to some selected antimicrobial agents and their usefulness in the identification work in a clinical laboratory: BuLL. JFCC, 5: 89, 1989), the bacterial strain was identified as the species N. brasiliensis. The results of the analysis of the G+C content and DNA homology support strongly that the strain is N. brasiliensis.

[2] = tested on: murine T cells (C57BL/6 splenocytes as responder cells); test: Murine mixed lymphocyte reaction (MLR), T-cell blast formation by tritium-labeled thymidine uptake; assay type: cell-based; details: Mus musculus, 96 h culture + 7 h labeling, read-out: IC50 (MLR, inhibition of tritium-labeled thymidine uptake)
[3] = Cytotoxity test, 3H-thymidine uptake, HEK-297; assay type: cell-based; details: human, hek-297 cells; HEK-297, 96 h; read-out: IC50 (cytotoxity)
Experimental: (§1) After culturing for 96 hours, ^3 H-thymidine (0.5 μCi/well) was added into each well. The microtiter plate was incubated for 4 hours, followed by trypsin treatment of the cell lines excluding YAC-1, and the resulting cells were recovered on glass fiber filters to measure the radioactivity incorporated into the cells by means of a liquid scintillation counter. From the radioactivity (c) of a well with no addition of any sample and the radioactivity (t) of each of the wells with addition of the individual samples, the growth inhibition rate was determined by the formula […] (%). IC50 was calculated from the results.

[4] = Cytotoxity test, 3H-thymidine uptake, Cos-1; assay type: cell-based; details: monkey, cos-1 cells; Cos-1, 96 h; read-out: IC50 (cytotoxity)
Experimental: as §1

[5] = Cytotoxity test, 3H-thymidine uptake, YAC-1; assay type: cell-based; details: mouse, yac-1 cells; YAC-1, 96 h; read-out: IC50 (cytotoxity)
Experimental: as §1

[6] = Cytotoxity test, 3H-thymidine uptake, HeLa; assay type: cell-based; details: human, hela cells, read-out: IC50 (cytotoxity)
Experimental: as §1

[7] = tested on: cultured cell lines (HEK-297, Cos-1, YAC-1, HeLa); test: Cytotoxity test, overall comparison on cultured cell lines; assay type: cell-based; details: in words
Experimental: (1) The cytotoxity test of compound 0406-A shown in Example 1 was carried out against cultured cell lines.
Cell suspensions (5.6×10^4 cells/ml) were prepared by using the Minimum Essential Medium (MEM)-Dulbecco's medium for HEK-297, Cos-1, and Hela cells, and the RPMI 1640 medium for YAC-1 cells (all media containing 10% bovine serum). Samples (0406A, Cyclosporin and Ascomycin) were prepared by serial two-fold dilution starting from 1 mg/ml, by using the individual media. A cell suspension (180 μl) and a sample solution (20 μl) were added into each well of a 96-well microtiter plate, for culturing at 37° C. in wet 5% CO2 -95% air environment. After culturing for 96 hours, ^3 H-thymidine (0.5 μCi/well) was added into each well. The microtiter plate was incubated for 4 hours, followed by trypsin treatment of the cell lines excluding YAC-1, and the resulting cells were recovered on glass fiber filters to measure the radioactivity incorporated into the cells by means of a liquid scintillation counter. From the radioactivity (c) of a well with no addition of any sample and the radioactivity (t) of each of the wells with addition of the individual samples, the growth inhibition rate was determined by the formula […] (%). IC50 was calculated from the results.

[8] = tested on: cytotoxic T-cell (CTL) generation; test: In vitro cytotoxic T-cell activity (inhibitory effect on CTL generation induced by murine mixed lymphocyte reaction), 51Cr release from EL-4 cells; assay type: cell-based; details: for Cytotoxic T-cell activity: lytic units per 10^7 effector cells
Experimental: (2) In vitro cytotoxic T-cell activity (CTL: cytotoxic T-cell) (Inhibitory effect on CTL generation, induced by murine mixed lymphocyte reaction)
A suspension solution (5.5×10^6 cells/ml; 0.9 ml) of BALB/C (H-2^d) splenocytes prepared in the same manner as in Example 2, a suspension solution (5.5×10^6 cells/ml; 0.9 ml) of C57BL/6 (H-2^b) splenocytes preliminarily treated with mitomycin C, and a sample solution (0.2 ml) were added into a 24-well multi-dish, for culturing at 37° C. under conditions of 5% CO2 -95% air for 5 days. After completion of cultivation, the cells were recovered by centrifuge, which were then suspended in the RPMI 1640 medium containing 10% bovine serum, for use as the effector cells.
EL-4 cells (H-2^b) were used as the target cells. The incubation of the EL-4 cells (10^6) with 0.1 μCi Na2^51 CrO4 at 37° C. for 3 hours promoted the ^51 Cr uptake in the cells, and subsequently, the cells were washed and the concentration was adjusted to 2×10^5 cells/ml for use as the target cells.
The determination of the cytotoxic T-cell generation was carried out as follows. The effector cell suspension (100 μl) and the target cell suspension (100 μl) were added into a 96-well round-bottom microtiter plate for cultivation at 37° C. for 4 hours, to measure ^51 Cr release in the supernatant. Then, the cytotoxic T-cell activity was calculated by the formulated below.
Cytotoxic T-cell activity =
[radioactivity of (effector cell + target cell)] -
(radioactivity of target cell alone)/
(radioactivity of target cell treated with 0.1N HCl) -
(radioactivity of target cell alone) × 100
The activity of the cytotoxic T cell was represented in lytic unit (LU). The activity in LU was represented per 10^7 effector cells, when 1 LU was designated as the number of effector cells required for 20% lysis of the 2×10^4 target cells.

Solubility = assay type: physicochemical
[9] = in words; cited from earlier work

SMILES: O=c1[nH]cc(F)c(=O)[nH]1 [5-FU]
Sensitivity against antibiotics [1]: negative

SMILES: C[C@@H](O)[C@H]1C(=O)N2C(C(=O)O)=C(SCCN=CN)C[C@H]12 [imipenem]
Sensitivity against antibiotics [1]: negative

SMILES: NC[C@H]1O[C@H](O[C@H]2[C@H](O)[C@@H](O[C@H]3O[C@H](CO)[C@@H](O)[C@H](N)[C@H]3O)[C@H](N)C[C@@H]2N)[C@H](O)[C@@H](O)[C@@H]1O [kanamycin]
Sensitivity against antibiotics [1]: negative

IC50 [2]: 0.16 µg/mL
SMILES: CCCCC(=O)OC1CC(OC(C)C(C)C(O)C(C)C(O)C(C)C2OC(=O)C=CCC(O)CC(O)CC(O)CCC(C)C(O)CC3(O)OC(CC(O)CC(OC(=O)CC(=O)O)CCCC(O)C4OC4C2C)CC(O)C3O)OC(C)C1O (stereo not drawn) [0406-A]
CC50 at 96 h [3]: > 100 µg/mL
CC50 at 96 h [4]: > 100 µg/mL
CC50 at 96 h [5]: > 100 µg/mL
CC50 at 96 h [6]: > 100 µg/mL
cytotoxity level versus commercially available immuno suppressive agents [7]: lower than that of the commercially available immuno suppressive agents
Cytotoxic T-cell activity ([8]; 126 ng/ml): 22.0 u
Cytotoxic T-cell activity ([8]; 625 ng/ml): 12.5 u
Cytotoxic T-cell activity ([8]; 2,500 ng/ml): 0.1 u
Cytotoxic T-cell activity ([8]; 10,000 ng/ml): < 0.1 u
inhibition at 0.126 µg/mL ([8]; Mus musculus, T-cell, 120 h, 126 ng/ml, read-out: Inhibition rate (cytotoxic T-cell activity)): 0%
inhibition at 0.625 µg/mL ([8]; Mus musculus, T-cell, 120 h, 625 ng/ml, read-out: Inhibition rate (cytotoxic T-cell activity)): 39.5%
inhibition at 2.5 µg/mL ([8]; Mus musculus, T-cell, 120 h, 2,500 ng/ml, read-out: Inhibition rate (cytotoxic T-cell activity)): 99.5%
inhibition at 10 µg/mL ([8]; Mus musculus, T-cell, 120 h, 10,000 ng/ml, read-out: Inhibition rate (cytotoxic T-cell activity)): > 99.5%
induction of CTL ([8]; in words, dose dependence): decreased the induction of CTL in a dose-dependent manner
Solubility (Solubility; chloroform, ethyl acetate, ether): Insoluble in chloroform, ethyl acetate and ether
Solubility (Solubility; water, methanol, ethanol, DMSO): Soluble in water, methanol, ethanol and DMSO

IC50 [2]: 0.008 µg/mL
SMILES: CC[C@@H]1/C=C(\C)C[C@H](C)C[C@H](OC)[C@H]2O[C@@](O)(C(=O)C(=O)N3CCCC[C@H]3C(=O)O[C@H](/C(C)=C/[C@@H]3CC[C@@H](O)[C@H](OC)C3)[C@H](C)[C@@H](O)CC1=O)[C@H](C)C[C@@H]2OC [Ascomycin, reference compound]
CC50 at 96 h [3]: 25 µg/mL (≈ 31.6 µM)
CC50 at 96 h [4]: 58 µg/mL (≈ 73.2 µM)
CC50 at 96 h [5]: 50 µg/mL (≈ 63.1 µM)
CC50 at 96 h [6]: 13 µg/mL (≈ 16.4 µM)

SMILES: C=CC[C@@H]1/C=C(\C)C[C@H](C)C[C@H](OC)[C@H]2O[C@@](O)(C(=O)C(=O)N3CCCC[C@H]3C(=O)O[C@H](/C(C)=C/[C@@H]3CC[C@@H](O)[C@H](OC)C3)[C@H](C)[C@@H](O)CC1=O)[C@H](C)C[C@@H]2OC [tacrorims]
side effects [9]: deleterious in the pancreas and the kidney

SMILES: NC[C@H]1O[C@H](O[C@H]2[C@H](O)[C@@H](O[C@H]3O[C@H](CO)[C@@H](O)[C@H](N)[C@H]3O)[C@H](N)C[C@@H]2N)[C@H](N)C[C@@H]1O [tobramycin]
Sensitivity against antibiotics [1]: positive
